Data from patent publication US20160102336A1, “FLUORESCENT PROBE FOR DETECTING ACTIVITY OF CALPAIN” (THE UNIVERSITY OF TOKYO, priority 2013, published 2016).
*1 amine or outer side, *2 acyl side, *3 side chain or, on linkers, in order; H or OH if unused. Where a SMILES comes first, the peptide text is derived from it. The star is where a group is joined. X1 = Cc1ccccc1C1=C2C=CC(=N)C=C2[Si](C)(C)c2cc(N*)ccc21; Suc = O=C(CCC(=O)[*:2])[*:1]

How the values were obtained:
[1] = Measurement of the optical characteristics; type: physicochemical; conditions: for Absmax / Emmax / Φn / ε: 0.1 sodium phosphate buffer with pH 3 containing 1% DMSO
Experimental: The optical characteristics of Suc-LLVY-SiR600 and Boc-LM-SiR600 were measured in a 0.1 sodium phosphate buffer with pH 3 containing 1% DMSO.

calpain-1 = target: T1, calpain-1 (Homo sapiens, UniProt P07384); experiment: Evaluation as a calpain fluorescent probe (fluorescence spectrum after addition of calpain-1); type: biochemical
T1 sequence (P07384 1-714): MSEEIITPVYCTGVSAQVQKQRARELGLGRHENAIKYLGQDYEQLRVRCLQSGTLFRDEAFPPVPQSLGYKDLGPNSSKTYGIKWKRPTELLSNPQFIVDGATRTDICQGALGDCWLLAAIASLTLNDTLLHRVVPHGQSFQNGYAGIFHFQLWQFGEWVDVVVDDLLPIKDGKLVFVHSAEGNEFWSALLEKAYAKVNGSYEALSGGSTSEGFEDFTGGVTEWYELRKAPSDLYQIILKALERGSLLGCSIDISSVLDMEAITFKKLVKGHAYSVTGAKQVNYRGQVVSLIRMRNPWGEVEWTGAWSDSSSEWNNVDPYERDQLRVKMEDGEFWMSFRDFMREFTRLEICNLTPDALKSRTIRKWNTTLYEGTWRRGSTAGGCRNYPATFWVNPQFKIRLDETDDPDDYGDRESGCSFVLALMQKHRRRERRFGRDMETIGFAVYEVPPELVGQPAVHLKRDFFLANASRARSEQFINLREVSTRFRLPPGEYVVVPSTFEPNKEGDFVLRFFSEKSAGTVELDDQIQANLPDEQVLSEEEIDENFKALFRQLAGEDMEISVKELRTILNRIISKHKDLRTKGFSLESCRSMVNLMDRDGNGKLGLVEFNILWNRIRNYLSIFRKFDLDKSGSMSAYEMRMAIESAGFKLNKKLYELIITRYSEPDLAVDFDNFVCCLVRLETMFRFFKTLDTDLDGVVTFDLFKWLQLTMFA
T1 sequence (P04632 1-268 partner): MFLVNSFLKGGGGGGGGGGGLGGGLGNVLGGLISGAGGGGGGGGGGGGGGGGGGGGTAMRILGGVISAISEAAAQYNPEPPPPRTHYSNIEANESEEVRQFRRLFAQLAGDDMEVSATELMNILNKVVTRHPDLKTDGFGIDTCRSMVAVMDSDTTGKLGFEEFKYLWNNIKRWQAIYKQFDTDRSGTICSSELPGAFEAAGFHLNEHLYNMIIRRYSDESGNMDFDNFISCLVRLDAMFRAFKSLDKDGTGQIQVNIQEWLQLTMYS
Experimental: FIGS. 1(c) to 1(e) show the fluorescence spectrum 10 to 60 minutes later from addition of 5 μg calpain-1 to the Suc-LLVY-SiR600 solution (2 μM).
In FIGS. 1(b) to 1(e), the reaction was carried out in a 0.75-mL of 20-mM HEPES buffer solution (pH 7.4) containing 100-μM DTT, 10% glycerol, 0.1% CHAPS, 100-mM NaCl, 1-mM EDTA, and 1.5-mM CaCl2, and containing 1% DMSO as a cosolvent.
In FIG. 1(d), the reaction was carried out in the absence of 1.5-mM CaCl2, and in FIG. 1(e), the reaction was carried out in the presence of 1-μM calpeptin.
The reaction temperature was 25° C. in FIGS. 1(b), 1(d), and 1(e), and 37° C. in FIG. 1(c).
In FIGS. 2(b) and 2(c), the reaction was carried out in a 0.75-mL of 20-mM HEPES buffer solution (pH 7.4) containing 100-μM DTT, 10% glycerol, 0.1% CHAPS, 100-mM NaCl, 1-mM EDTA, and 1.5-mM CaCl2, and containing 1% DMSO as a cosolvent. In FIG. 2(c), the reaction was carried out in the presence of 1-μM calpeptin, and in FIG. 2(b), the reaction was carried out in the absence of calpeptin.
The reaction temperature was 25° C. in FIGS. 2(b) and 2(c), and the excitation wavelength was 593 nm.

[2] = tested on: Calpain activity in HeLa cells; experiment: Imaging of calpain activity in HeLa cells (confocal microscope); type: cell-based
Experimental: Hela cells were incubated for 10 minutes at 37° C. using (a) Hank's balanced salt solution (HBSS) containing DMSO as a control, and (b) HBSS containing […] calpeptin, and further incubation for 20 minutes was carried out in 2-μM Suc-LLVY-SiR600. A fluorescence image and a differential interference image were then taken using a confocal microscope. The scale bar in the drawings is 20 μm.
(§1) Statistical analysis was carried out using Student's t-test (n=18).

[3] = tested on: Calpain activity in A549 cells; experiment: Imaging of calpain activity in A549 cells (confocal microscope); type: cell-based; conditions: 2-μM Suc-LLVY-SiR600, 20 minutes, HBSS, 37° C.
Experimental: A549 cells were incubated for 10 minutes at 37° C. using (a) Hank's balanced salt solution (HBSS) containing DMSO as a control, and (b) HBSS containing 20-μM calpeptin, and further incubation for 20 minutes was carried out in 2-μM Suc-LLVY-SiR600. A fluorescence image and a differential interference image were then taken using a confocal microscope. The scale bar in the drawings is 20 μm.
as §1

Molecule | Absmax [1] [nm] | Emmax [1] [nm] | Φn [1] | ε [1] | absorption of light near maximum absorption (593 nm) of 2MeSiR600 ([1]; near 593 nm) | increase in fluorescence in a solution that does not contain Ca^2+ (calpain-1; probe 2 μM, 5 μg calpain-1, 10 to 60 minutes, absence of 1.5-mM CaCl2, 25° C.) | fluorescence after the reaction with calpain-1 (calpain-1; probe 2 μM, 5 μg calpain-1, 180 minutes, HEPES buffer pH 7.4 with 1.5-mM CaCl2, 25° C., excitation 593 nm) | fluorescence before the reaction with calpain-1 (calpain-1; probe 2 μM, excitation 593 nm, before addition of calpain-1, 25° C.) | visualization of calpain activity in HeLa cells ([2]; 2-μM Suc-LLVY-SiR600, 20 minutes, HBSS, 37° C.) | visualization of calpain activity in A549 cells [3] | increase in fluorescence of Boc-LM-SiR600 with calpain-1 when calpeptin was added (calpain-1; 1-μM calpeptin, Boc-LM-SiR600 2 μM, 5 μg calpain-1, 25° C.) | increase in fluorescence of Suc-LLVY-SiR600 with calpain-1 when calpeptin is added (calpain-1; 1-μM calpeptin, Suc-LLVY-SiR600 2 μM, 5 μg calpain-1, 25° C.) | fluorescence intensity in HeLa cells on addition of calpeptin ([2]; 20-11M calpeptin 10 minutes at 37° C., then 2-μM Suc-LLVY-SiR600 20 minutes)
2Me SiR600 [reference compound] | 593 | 613 | 0.38 | 91,000 M^−1cm^−1 | – | – | – | – | – | – | – | – | –
Cc1ccccc1C1=C2C=CC(=N)C=C2[Si](C)(C)c2cc(NC(=O)[C@H](Cc3ccc(O)cc3)NC(=O)[C@@H](NC(=O)[C@H](CC(C)C)NC(=O)[C@H](CC(C)C)NC(=O)CCC(=O)O)C(C)C)ccc21 [Suc-LLVY-SiR600] (Suc-LLVY-X1) | 497 | 590 | 0.03 | 25,000 M^−1cm^−1 | did not absorb light | an increase in fluorescence does not occur | high-intensity fluorescence was observed | fluorescence was mostly unobserved | calpain activity in HeLa cells can be monitored | calpain activity in cells was successfully visualized | – | – | –
CCCC[C@@H](C=O)NC(=O)[C@H](CC(C)C)NC(=O)OCc1ccccc1 [calpeptin, reference compound] | – | – | – | – | – | – | – | – | – | – | an increase in fluorescence did not occur | an increase in fluorescence does not occur | fluorescence intensity in the cells was reduced
